From ChEMBL document CHEMBL3507680, “University of Dundee, Gates Library screen for HepG2 cell viability”

Test: Human HepG2 cell viability assay in 384 well format
Assay type: toxicity, cell-based
Set-up: dose 125 nL, time 70.5 hour; cytotoxicity at 70.5 h: concentration not given beside the values
Details: HepG2 cells, read-out: Inhibition

Row | Structure (SMILES) | cytotoxicity at 70.5 h [%]
1 | Cc1ccnc(C2CCN(C(=O)c3cnn(C)c3)C2)n1 (centres undefined) | 12.7
2 | CCCN(C(=O)c1cnccn1)c1nc2c(s1)CCc1c-2cnn1C | 7.37
3 | CN(C)Cc1ccnc(C2CCCN2Cc2cc3ccccc3s2)n1 (centres undefined) | -1.24
4 | O=C(c1cccs1)N1CCc2c(nc(N3CCCCC3)[nH]c2=O)C1 | -0.672
5 | O=C(c1cc[nH]n1)N1CCc2c(nc(N3CCCCC3)[nH]c2=O)C1 | -4.43
6 | Cc1nc(O)c2nnn(C[C@H]3CCCN3C(=O)c3cccs3)c2n1 | -7.34
7 | CN1CCCC(c2cccc(CCC(=O)NCc3ccccn3)n2)C1 (centres undefined) | -7.64
8 | O=C(c1cscn1)N1CCC(Cc2cnc3[nH]ccc3c2)C1 (centres undefined) | -1.17
9 | Cc1nc(O)cc(C2CCCN2CCO)n1 (centres undefined) | -5.13
10 | Cc1cc(C)nc(Nc2cccc(C3CCCN(C(C)C)C3)n2)n1 (centres undefined) | -6.28
11 | c1ccc(OCCN2CCC(c3nnc(-c4cccnc4)o3)CC2)cc1 | -2.58
12 | CCc1c(C)nc2cc(C3CCN(Cc4ccc(F)cc4)C3)nn2c1O (centres undefined) | -5.42
13 | COC(=O)C1CCCN1C(=O)c1ccc(Cl)cc1F (centres undefined) | -2.57
14 | NC(=O)C1CCN(S(=O)(=O)c2cnn(-c3ccccc3)c2)CC1 | -4.05
15 | COCCn1cc(C(=O)NCCS(N)(=O)=O)c2ccccc21 | -7.1
16 | CCCn1cc(C(=O)NCCCC(N)=O)c2ccccc21 | -2.51
17 | O=C(NC1(C(=O)O)CCCCC1)C1Cc2ccccc2O1 (centres undefined) | -3.59
18 | Cc1noc(C(C)N2CCN(CCn3ccccc3=O)CC2)n1 (centres undefined) | -1.66
19 | Cc1noc(CNC(=O)NCCc2ccc(Cl)cc2)n1 | -3.31
20 | Cc1noc(CNC(=O)NCCOc2ccc(Cl)cc2)n1 | -3.2
21 | CC(C)CN(CC(C)C)Cn1ncc2cn(-c3ccccc3)nc2c1=O | -2.25

Row | Structure (SMILES) | cytotoxicity at 70.5 h [%]
22 | COc1c(C2CCCN2c2ncnc3c2CCC3)c(C)nn1C (centres undefined) | -2.31
23 | COc1ccc(C(NC(=O)c2cccc[n+]2[O-])C2CC2)cc1 (centres undefined) | -3.04
24 | CN(Cc1cc2ccccc2o1)S(C)(=O)=O | -1.88
25 | CCc1noc(CN(C)C2CCN(c3sccc3C#N)C2=O)n1 (centres undefined) | -2.79
26 | CN(Cc1ncnn1C)C1CCN(c2sccc2C#N)C1=O (centres undefined) | -1.7
27 | O=C(NC1(C(=O)O)CCCC1)C1Cc2cc(F)ccc2O1 (centres undefined) | 0.608
28 | CCCC(C)CS(=O)(=O)NCCc1csc(N2CCCC2)n1 (centres undefined) | -2.73
29 | c1csc(-c2noc(C3CCCOC3)n2)c1 (centres undefined) | -2.62
30 | Cc1nn(C)c(Cl)c1C1CCCN1c1ncnc2c1CCC2 (centres undefined) | 18
31 | CC(C)c1cc(C(=O)N2CCc3ccccc3C2C(=O)O)n(C)n1 (centres undefined) | -5.14
32 | CC(C)c1nc(C(=O)N2CCc3ccccc3C2C(=O)O)cs1 (centres undefined) | -2.12
33 | COC(=O)C1CCCCN1C(=O)c1ccccc1F (centres undefined) | -2.94
34 | CC(C)CN(CC(=O)O)C(=O)c1ccc(F)cc1 | 4.28
35 | Cc1cc(N2CCC(NS(C)(=O)=O)CC2)nc(C(C)C)n1 | -4.49
36 | Cc1ccc(C(=O)Nc2ccccc2N2CCCC2)n1C | 12
37 | CN(Cc1ccccc1F)C(=O)COC(=O)c1cc(Cl)c[nH]1 | 10.9
38 | CN(Cc1ccco1)C(=O)CN1C(=O)c2cc(Cl)c(Cl)cc2C1=O | -16.6
39 | O=C(Nc1cc(C(F)(F)F)c[nH]c1=O)C1CCCO1 (centres undefined) | -7.79
40 | CC(=O)N1CCC(C(=O)NCCc2c[nH]c3cc(C)ccc23)CC1 | 16.1
41 | CC1COCCN1C(=O)COc1cccc(Oc2ccccn2)c1 (centres undefined) | -9.57
42 | NC(=O)CCN(CC(=O)NCc1ccccn1)c1ccc(F)cc1 | -9.69

Row | Structure (SMILES) | cytotoxicity at 70.5 h [%]
43 | c1cc(CNCc2cccc3c2OCCO3)cc(Cn2cncn2)c1 | -10.5
44 | CSCC(=O)N1CCOC(c2nc(C(C)(C)C)n[nH]2)C1 (centres undefined) | -0.6
45 | N#CCCCS(=O)(=O)NC1(c2ccc(F)cc2)CC1 | -8.06
46 | CCc1nnsc1C(=O)N1CCOC(c2nc(C(C)C)n[nH]2)C1 (centres undefined) | -2.32
47 | CCc1ocnc1C(=O)N1CCOC(c2nc(C(C)C)n[nH]2)C1 (centres undefined) | -10.4
48 | O=C(Nc1ccc(F)cc1-c1nc(C2CC2)no1)N1CC[C@@H](O)C1 | -6.37
49 | COCc1noc(Cn2c(C3CC3)nc3ccccc32)n1 | 21.1
50 | CNC(=O)c1cccc(CN2CCN(c3ccncc3)CC2)c1 | 0.282
51 | CNS(=O)(=O)C1CCN(c2cc(C(C)C)nc(C(C)C)n2)C1 (centres undefined) | -6.44
52 | CC1CN(C)CCN1C(=O)COc1cccc(Oc2ccccn2)c1 (centres undefined) | 18.2
53 | c1ncn(Cc2ccc(CNCc3ccc4c(c3)OCCO4)cc2)n1 | -13.3
54 | CCN1CCCCC1C(=O)N1CCC(OC2CCCC2)CC1 (centres undefined) | 6.41
55 | Cc1ccc(CN(C)C(=O)CNC(=O)N2CCc3ccccc3C2)o1 | 17.9
56 | Cc1cccc(C(=O)N(CC(=O)O)CC(C)C)c1 | 11.7
57 | CCNC(=O)c1ccc(NC2CCOC3(CCCC3)C2)nn1 (centres undefined) | 17
58 | CN(C1CCCCC1)S(=O)(=O)NCC1Cc2ccccc2O1 (centres undefined) | -1.4
59 | CCCc1noc(C[S+]([O-])CC(=O)NCc2ccccc2)n1 (centres undefined) | 15.8
60 | Cc1c(NC(=O)CN(C)S(C)(=O)=O)cccc1OC1CCCC1 | -4
61 | CCn1cc(S(=O)(=O)NCc2ccnc(-n3ccnc3)c2)cn1 | -6.31
62 | O=S(=O)(NCc1ccnc(-n2ccnc2)c1)c1cncc(F)c1 | -1.94
63 | Cc1cnn(Cc2cccc(OCC(N)=O)c2)c1 | -1.49

Row | Structure (SMILES) | cytotoxicity at 70.5 h [%]
64 | Cc1nc(CN2CCc3ccc(S(N)(=O)=O)cc32)oc1C | 0.0206
65 | Cc1cnc(C(NC(=O)NCc2nc(C3CC3)no2)C2CC2)s1 (centres undefined) | -1.45
66 | CS(=O)(=O)NCC1Cc2ccccc2O1 (centres undefined) | -0.512
67 | OC(c1cnn(-c2ccccc2)c1)C(F)(F)F (centres undefined) | -1.66
68 | CC(C)c1nnc(CN2CCCc3ccc(S(N)(=O)=O)cc32)o1 | -0.377
69 | O=C(NCCN1CCOCC1)c1cc(-c2ccc(Cl)s2)[nH]n1 | -1.44
70 | Cc1noc(C)c1CC(=O)NCCN1CCN(S(C)(=O)=O)CC1 | 0.0227
71 | Cc1noc(C)c1C(=O)NCCN1CCOCC1 | 1.59
72 | O=C(CS(=O)(=O)c1ncccc1Cl)NC1CCCc2ccccc21 (centres undefined) | 12
73 | N#Cc1cnc(NC2CCN(C(=O)C3CCCCC3)CC2)c(Cl)c1 | -0.508
74 | COC(=O)c1cc(NCC(=O)NC(N)=O)cc(C(F)(F)F)c1 | 0.625
75 | CC(C)(CNC(=O)Nc1cccc(-c2nccs2)c1)C(N)=O | -0.236
76 | CC(C)(CNC(=O)Nc1cccc(-c2cccs2)c1)C(N)=O | 0.351
77 | Cc1cccc(CNC(Cn2cncn2)c2ccccc2)c1C (centres undefined) | 1.21
78 | CC(C)CC(NC(=O)c1cccc(F)c1F)C(=O)Nc1cc[nH]n1 (centres undefined) | -1.3
79 | N#Cc1c(Cl)nsc1NCc1ccc(N2CCSCC2)cc1 | 12.7
80 | O=C(CNC(=O)Nc1cccc(-c2nccs2)c1)NCCO | -2.39
81 | Cc1cccc(N2CCN(CCC(=O)NCc3nnc[nH]3)CC2)c1 | -1.67
82 | O=C(CS(=O)(=O)c1cccc[n+]1[O-])NC1CCCc2ccccc21 (centres undefined) | 1.9
83 | Cc1cn2c(CN(C)C(=O)c3cnc(N)c(Cl)c3)c(C)nc2s1 | 11.9
84 | Cc1cc(C)nc(N2CCN(Cc3nccn3C)CC2)n1 | -2.76
